For 6 compounds, binding and KD results are on record in paper PMC10085697 (2023).

The subject of test [1] is Mango II (RNA, aptamer) GCACGUACGAAGGAGAGGAGAGGAAGAGGAGAGUACGUGC
As to the kind of experiment: absorbance shift and fluorescence light-up. The settings on record: 140 mM KCl; 10 mM Tris-HCl pH 7.5, 5 μM dye, 5 μM RNA.

In test [2] the test system is Mango IV (RNA, aptamer) GCACGUACCGAGGGAGUGGUGAGGAUGAGGCGAGUACGUGC
As to the kind of experiment: absorbance shift and fluorescence light-up. The settings on record: 140 mM KCl; 10 mM Tris-HCl pH 7.5, 5 μM dye, 5 μM RNA.

Test [3] relates to Broccoli (RNA, aptamer) GGGAGACGGUCGGGUCCAGAUAUUCGUAUCUGUCGAGUAGAGUGUGGGCUC
Nature of the test: absorbance and fluorescence titration. The conditions noted are these: 140 mM KCl; 10 mM Tris-HCl pH 7.5.

The test system of test [4] is Mango II (RNA, aptamer) GCACGUACGAAGGAGAGGAGAGGAAGAGGAGAGUACGUGC
As to the kind of experiment: fluorescence light-up titration (Monolith NT.115). The conditions noted are these: 140 mM KCl; 10 mM Tris-HCl pH 7.5, 0.05% Tween-20, 25 °C, 10 nM dye; rough evaluation.

Test [5] deals with ds_Mango II (RNA, aptamer) GGUGUGGGGCACGUACGAAGGAGAGGAGAGGAAGAGGAGAGUACGUGCCCCACA
Nature of the test: fluorescence light-up. The conditions noted are these: 140 mM KCl.

Test [6] concerns Control G4 RNA (utr-z) (RNA, G4) GGCGGCGGCAGUGGCGGCGG
As to the kind of experiment: fluorescence light-up. The settings on record: 140 mM KCl; 10 mM Tris-HCl pH 7.5, 5 μM dye, 5 μM RNA.

For test [7], the system named is Broccoli (RNA, aptamer) GGGAGACGGUCGGGUCCAGAUAUUCGUAUCUGUCGAGUAGAGUGUGGGCUC
As to the kind of experiment: fluorescence titration. The conditions noted are these: affinity called insignificant compared to that of Mango II; highest concentration not stated.

Test [8] deals with Mango IV (RNA, aptamer) GCACGUACCGAGGGAGUGGUGAGGAUGAGGCGAGUACGUGC
As to the kind of experiment: fluorescence light-up titration (Monolith NT.115). The settings on record: 140 mM KCl; 10 mM Tris-HCl pH 7.5, 0.05% Tween-20, 25 °C, 10 nM dye; rough evaluation.

Regarding `CC1=CC(C)(C)N(C)c2ccc(/C=C/c3sc4ccccc4[n+]3Cc3cn(CCOCCOCCOCCNC(=O)CCCC[C@@H]4SC[C@@H]5NC(=O)N[C@@H]54)nn3)cc21`, the binding result in test [1] and in test [2] was “yes” throughout.

Regarding `CC1=N/C(=C\c2cc(F)c(O)c(F)c2)C(=O)N1C`, the binding entry in test [3] is recorded as “yes”.

Turning to `CN(C)c1ccc(/C=C/c2sc3ccccc3[n+]2Cc2cn(CCOCCOCCOCCNC(=O)CCCC[C@@H]3SC[C@@H]4NC(=O)N[C@@H]43)nn2)cc1`, the results for the KD in test [4] and in test [8] were 0.08 ± 0.06 µM and 0.6 ± 0.4 µM, respectively. Also, the binding result in test [5] (20 mM sodium phosphate pH 7.2, 0.05% Tween-20, 1 μM) is “yes”; in test [6], “weak”; in test [7] it was “no”.

In the case of `CN1C=CC(=Cc2sc3ccccc3[n+]2CC(=O)NCCOCCOCCOCCNC(=O)CCCC[C@@H]2SC[C@@H]3NC(=O)N[C@@H]32)c2ccccc21`, the binding entry in test [1], in test [5] (buffer stated for 4b only), in test [6] and in test [2] was “yes” each time.

For the compound `CN1C=CC(=Cc2sc3ccccc3[n+]2Cc2cn(CCOCCOCCOCCNC(=O)CCCC[C@@H]3SC[C@@H]4NC(=O)N[C@@H]43)nn2)c2ccccc21`, the binding result in test [1], in test [6] and in test [2] was “yes” each time.

As for `O=C(CCCC[C@@H]1SC[C@@H]2NC(=O)N[C@@H]21)NCCOCCOCCOCCn1cc(C[n+]2c(/C=C/c3cc4c5c(c3)CCCN5CCC4)sc3ccccc32)nn1`, the binding result in test [1] and in test [2] was “yes” each time.
